From ChEMBL document CHEMBL4819004, “Discovery of selective CDK9 degraders with enhancing antiproliferative activity through PROTAC conversion” (Eur J Med Chem, 2021)

Tests used:
[1] = target: CDK9/cyclin T1 (Homo sapiens, UniProt P50750); test: Inhibition of CDK9/cyclin T (unknown origin) using YSPTSPSYSPTSPSYSPTSPKKK or histone H1 as substrate incubated for 2 hrs in presence of [gamma-33P]ATP by radioactive filter binding assay; format: protein-complex assay
[2] = test system: MV4-11; test: Antiproliferative activity against human MV4-11 cells incubated for 72 hrs by MTT assay; format: functional, cell-based; settings: MV4-11, 72 h
[3] = test system: MOLM-13; test: Antiproliferative activity against human MOLM-13 cells incubated for 72 hrs by MTT assay; format: functional, cell-based; settings: MOLM-13, 72 h
[4] = test system: HCT-116; test: Antiproliferative activity against human HCT-116 cells incubated for 72 hrs by MTT assay; format: functional, cell-based; settings: HCT-116, 72 h
[5] = test system: B16; test: Antiproliferative activity against mouse B16 cells incubated for 72 hrs by MTT assay; format: functional, cell-based; settings: B16, 72 h
[6] = test system: A549; test: Antiproliferative activity against human A549 cells incubated for 72 hrs by MTT assay; format: functional, cell-based; settings: A549, 72 h
[7] = test system: HepG2; test: Antiproliferative activity against human HepG2 cells incubated for 72 hrs by MTT assay; format: functional, cell-based; settings: HepG2, 72 h
[8] = test system: MCF7; test: Antiproliferative activity against human MCF7 cells incubated for 72 hrs by MTT assay; format: functional, cell-based; settings: MCF7, 72 h
[9] = target: T1, Protein cereblon/Cyclin-dependent kinase 9 (Homo sapiens, UniProt P50750+Q96SW2); test: Protac activity at CRBN/CDK9 in human MV4-11 cells assessed as CDK9 degradation rate at 500 nM incubated for 6 hrs by Western blot assay relative to control; format: cell-based
Target sequence in this assay (P50750 whole entry, looked up): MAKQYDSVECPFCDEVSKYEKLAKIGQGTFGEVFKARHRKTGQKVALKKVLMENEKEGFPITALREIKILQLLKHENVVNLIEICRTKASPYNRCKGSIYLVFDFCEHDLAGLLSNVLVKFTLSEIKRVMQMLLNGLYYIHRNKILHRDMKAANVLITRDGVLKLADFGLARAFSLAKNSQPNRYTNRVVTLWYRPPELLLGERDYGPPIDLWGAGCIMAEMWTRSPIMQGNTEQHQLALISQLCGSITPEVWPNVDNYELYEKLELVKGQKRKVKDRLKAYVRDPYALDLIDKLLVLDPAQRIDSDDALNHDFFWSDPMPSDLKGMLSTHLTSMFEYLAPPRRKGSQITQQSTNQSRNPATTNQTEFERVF
Target sequence in this assay (Q96SW2 whole entry, looked up): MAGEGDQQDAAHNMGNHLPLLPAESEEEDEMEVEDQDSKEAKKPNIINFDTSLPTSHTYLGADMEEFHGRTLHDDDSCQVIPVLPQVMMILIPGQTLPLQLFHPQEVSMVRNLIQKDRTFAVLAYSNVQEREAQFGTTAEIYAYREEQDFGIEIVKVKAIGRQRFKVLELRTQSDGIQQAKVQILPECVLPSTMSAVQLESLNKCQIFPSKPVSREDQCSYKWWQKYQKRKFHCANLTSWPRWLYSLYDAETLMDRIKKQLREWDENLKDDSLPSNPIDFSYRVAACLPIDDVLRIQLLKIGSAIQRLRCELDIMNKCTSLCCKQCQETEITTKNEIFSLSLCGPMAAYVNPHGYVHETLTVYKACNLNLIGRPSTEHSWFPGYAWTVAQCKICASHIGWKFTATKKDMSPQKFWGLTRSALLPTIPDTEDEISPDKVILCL

[10] = target: T1, Protein cereblon/Cyclin-dependent kinase 9; test: Protac activity at CRBN/CDK9 in human MOLM-13 cells assessed as CDK9 degradation rate at 500 nM incubated for 6 hrs by Western blot assay relative to control; format: cell-based
Target sequence in this assay (P50750 whole entry, looked up): as the sequence (P50750 whole entry, looked up) above
Target sequence in this assay (Q96SW2 whole entry, looked up): as the sequence (Q96SW2 whole entry, looked up) above

[11] = target: T1, Protein cereblon/Cyclin-dependent kinase 9; test: Protac activity at CRBN/CDK9 in human MV4-11 cells assessed as induction of CDK9 degradation incubated for 6 hrs by Western blot assay; format: cell-based
Target sequence in this assay (P50750 whole entry): as the sequence (P50750 whole entry, looked up) above
Target sequence in this assay (Q96SW2 whole entry): as the sequence (Q96SW2 whole entry, looked up) above

[12] = test system: MV4-11; test: Induction of apoptosis in human MV4-11 cells assessed as total apoptotic cells at 500 nM after 6 hrs by AnnexinV-FITC/propidium iodide staining based flow cytometry (reference value: 9.75 %); format: functional
[13] = test system: MV4-11; test: Induction of apoptosis in human MV4-11 cells assessed as viable cells at 500 nM after 6 hrs by AnnexinV-FITC/propidium iodide staining based flow cytometry (reference value: 90.1 %); format: functional; settings: read-out: Activity
[14] = test system: MV4-11; test: Induction of apoptosis in human MV4-11 cells assessed as early apoptotic cells at 500 nM after 6 hrs by AnnexinV-FITC/propidium iodide staining based flow cytometry (reference value: 5.36 %); format: functional
[15] = test system: MV4-11; test: Induction of apoptosis in human MV4-11 cells assessed as late apoptotic cells at 500 nM after 6 hrs by AnnexinV-FITC/propidium iodide staining based flow cytometry (reference value: 4.29%); format: functional
[16] = test system: MV4-11; test: Induction of apoptosis in human MV4-11 cells assessed as necrotic cells at 500 nM after 6 hrs by AnnexinV-FITC/propidium iodide staining based flow cytometry (reference value: 0.16 %); format: functional

Sequence of CDK9/cyclin T1 (O60563 whole entry): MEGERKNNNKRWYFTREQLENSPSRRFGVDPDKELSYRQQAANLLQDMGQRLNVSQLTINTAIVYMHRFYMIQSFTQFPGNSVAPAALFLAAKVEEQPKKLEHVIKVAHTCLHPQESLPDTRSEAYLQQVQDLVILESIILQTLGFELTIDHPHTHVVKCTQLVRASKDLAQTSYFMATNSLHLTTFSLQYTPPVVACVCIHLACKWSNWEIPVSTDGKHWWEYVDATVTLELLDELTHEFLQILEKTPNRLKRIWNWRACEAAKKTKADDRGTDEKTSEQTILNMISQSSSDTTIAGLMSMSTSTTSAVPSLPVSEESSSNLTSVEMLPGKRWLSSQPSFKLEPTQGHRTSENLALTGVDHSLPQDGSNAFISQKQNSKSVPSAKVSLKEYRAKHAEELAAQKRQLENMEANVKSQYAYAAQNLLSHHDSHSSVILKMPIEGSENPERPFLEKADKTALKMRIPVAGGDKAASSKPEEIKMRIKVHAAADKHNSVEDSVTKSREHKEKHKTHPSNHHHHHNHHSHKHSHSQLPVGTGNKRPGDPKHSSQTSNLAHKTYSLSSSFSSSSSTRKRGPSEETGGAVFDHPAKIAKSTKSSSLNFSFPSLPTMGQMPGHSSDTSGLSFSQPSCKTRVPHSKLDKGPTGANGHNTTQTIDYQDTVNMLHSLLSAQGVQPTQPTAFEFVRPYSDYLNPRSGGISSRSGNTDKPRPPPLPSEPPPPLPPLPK
Sequence of CDK9/cyclin T1 (P50750 whole entry): as the sequence (P50750 whole entry, looked up) above

SMILES | IC50 [1] [nM] | IC50 [2] [nM] | IC50 [3] [nM] | IC50 [4] [µM] | IC50 [5] [µM] | IC50 [6] [µM] | IC50 [7] [µM] | IC50 [8] [µM] | Activity [9] [%] | Activity [10] [%] | DC50 [11] [nM] | Activity [12] [%] | viability at 0.5 µM [13] [%] | Activity [14] [%] | Activity [15] [%] | Activity [16] [%]
COc1cc(F)ccc1-c1ncnc(Nc2cccc(CS(C)(=O)=NC(=O)CCCCCC(=O)NCCCCCNc3cccc4c3C(=O)N(C3CCC(=O)NC3=O)C4=O)c2)n1 (configuration not stated) | 13.9 | 450 | 470 | 1.42 | 3.5 | 11.9 | 4.15 | 8.02 | 95 | 65 |  |  |  |  |  | 
COc1cc(F)ccc1-c1ncnc(Nc2cccc(CS(C)(=O)=NC(=O)CCCC(=O)NCCNc3cccc4c3C(=O)N(C3CCC(=O)NC3=O)C4=O)c2)n1 (configuration not stated) | 12.7 | 460 | 2800 | 20.6 | 22.1 | 35.6 | 19.1 | 24.8 | 100 | 99 | 27.3 |  |  |  |  | 
COc1cc(F)ccc1-c1ncnc(Nc2cccc(CS(C)(=O)=NC(=O)CCCCCCCCCC(=O)NCCNc3cccc4c3C(=O)N(C3CCC(=O)NC3=O)C4=O)c2)n1 (configuration not stated) | 10.7 | 39 | 380 | 3.23 | 1.72 | 2.28 | 8.61 | 4.79 | 100 | 99 | 31.2 |  |  |  |  | 
COc1cc(N2CCN(CCCCCC(=O)NCCNc3cccc4c3C(=O)N(C3CCC(=O)NC3=O)C4=O)CC2)ccc1-c1ncnc(Nc2cccc(CS(C)(=N)=O)c2)n1 (configuration not stated) | 8110 | 7710 | > 50000 | > 50 | > 50 | > 50 | > 50 | > 50 | 62 | 24 |  |  |  |  |  | 
COc1cc(N2CCN(CCCCCCC(=O)NCCNc3cccc4c3C(=O)N(C3CCC(=O)NC3=O)C4=O)CC2)ccc1-c1ncnc(Nc2cccc(CS(C)(=N)=O)c2)n1 (configuration not stated) | 6560 | 3800 | > 50000 | > 50 | > 50 | > 50 | > 50 | > 50 | 52 | 7 |  |  |  |  |  | 
COc1cc(F)ccc1-c1ncnc(Nc2cccc(C[S@](C)(=N)=O)c2)n1 [ATUVECICLIB] |  | 560 | 200 | 2.94 | 1.47 | 3.29 | 2.7 | 5.52 | 0 | 0 |  | 21.1 | 78.6 | 4.99 | 15.7 | 0.26
COc1cc(F)ccc1-c1ncnc(Nc2cccc(CS(C)(=O)=NC(=O)COCCOCCOCC(=O)NCCNc3cccc4c3C(=O)N(C3CCC(=O)NC3=O)C4=O)c2)n1 (configuration not stated) | 14.9 | 270 | 650 | 12.2 | 18.4 | 13.2 | 17.5 | 20.8 | 51 | 0 |  |  |  |  |  | 
COc1cc(N2CCN(CCCCCCCC(=O)NCCNc3cccc4c3C(=O)N(C3CCC(=O)NC3=O)C4=O)CC2)ccc1-c1ncnc(Nc2cccc(CS(C)(=N)=O)c2)n1 (configuration not stated) | 6870 | 4900 | > 50000 | > 50 | > 50 | > 50 | > 50 | > 50 | 33 | 23 |  |  |  |  |  | 
COc1cc(F)ccc1-c1ncnc(Nc2cccc(CS(C)(=O)=NC(=O)CCc3cn(CCCCCCCC(=O)NCCNc4cccc5c4C(=O)N(C4CCC(=O)NC4=O)C5=O)nn3)c2)n1 (configuration not stated) | 9.25 | 180 | 200 | 5.51 | 3.07 | 4.14 | 4.65 | 11.4 | 100 | 100 | 10.3 |  |  |  |  | 
COc1cc(F)ccc1-c1ncnc(Nc2cccc(CS(C)(=O)=NC(=O)CCC(=O)CCC(=O)NCCNc3cccc4c3C(=O)N(C3CCC(=O)NC3=O)C4=O)c2)n1 (configuration not stated) | 10.2 | 70 | 130 | 3 | 1.75 | 3.21 | 3.36 | 5.18 | 98 | 98 |  |  |  |  |  | 
COc1cc(F)ccc1-c1ncnc(Nc2cccc(CS(C)(=O)=NC(=O)CCc3cn(CCCCCC(=O)NCCNc4cccc5c4C(=O)N(C4CCC(=O)NC4=O)C5=O)nn3)c2)n1 (configuration not stated) | 11.4 | 720 | 990 | 16.4 | 16.2 | 8.35 | 10.3 | 24.5 | 88.8 | 66 |  |  |  |  |  | 
COc1cc(F)ccc1-c1ncnc(Nc2cccc(CS(C)(=O)=NC(=O)CCCCCC(=O)NCCNc3cccc4c3C(=O)N(C3CCC(=O)NC3=O)C4=O)c2)n1 (configuration not stated) | 14.4 | 180 | 1110 | 8.04 | 6.68 | 1.44 | 16.4 | 5.34 | 88.8 | 66 |  |  |  |  |  | 
COc1cc(F)ccc1-c1ncnc(Nc2cccc(CS(C)(=O)=NC(=O)COCCOCCOCC(=O)NCCCCCNc3cccc4c3C(=O)N(C3CCC(=O)NC3=O)C4=O)c2)n1 (configuration not stated) | 9.35 | 250 | 480 | 3.1 | 3.35 | 6.15 | 8.51 | 10.2 | 100 | 99 |  |  |  |  |  | 
COc1cc(F)ccc1-c1ncnc(Nc2cccc(CS(C)(=O)=NC(=O)CCC(=O)CCC(=O)NCCCCCNc3cccc4c3C(=O)N(C3CCC(=O)NC3=O)C4=O)c2)n1 (configuration not stated) | 85.7 | 1100 | 740 | 4.77 | 8.64 | 11.1 | 8.58 | 15.5 | 67 | 45 |  |  |  |  |  | 
COc1cc(N2CCN(CCCCCCCCCC(=O)NCCNc3cccc4c3C(=O)N(C3CCC(=O)NC3=O)C4=O)CC2)ccc1-c1ncnc(Nc2cccc(CS(C)(=N)=O)c2)n1 (configuration not stated) | 6340 | 2600 | > 50000 | > 50 | > 50 | > 50 | > 50 | > 50 | 44 | 49 |  |  |  |  |  | 
